The record followed here is article PMC4278257 (International Journal of Biological Sciences, 2015).

The target of test [1] is T1, SlitOBP1 Glu98 (glutamic to alanine) (Spodoptera litura, UniProt A1Z1R1, E117A).
T1 sequence (A1Z1R1 20-164 E117A): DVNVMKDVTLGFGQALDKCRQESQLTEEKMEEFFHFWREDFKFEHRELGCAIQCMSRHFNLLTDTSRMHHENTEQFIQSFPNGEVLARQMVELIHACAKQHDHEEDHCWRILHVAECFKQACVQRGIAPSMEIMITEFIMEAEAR
Nature of the test: Fluorescence binding assay with 1-NPN, mutant SlitOBP1 Glu98.

Test [2] has as its target T2, SlitOBP1 Phe12 (phenylalanine to alanine) (Spodoptera litura, UniProt A1Z1R1, F31A).
T2 sequence (A1Z1R1 20-164 F31A): T1 sequence (A1Z1R1 20-164 E117A) with F12A, A98E
Nature of the test: Fluorescence binding assay with 1-NPN, mutant SlitOBP1 Phe12.

Test [3] deals with T3, SlitOBP1 Thr9 (threonine to alanine) (Spodoptera litura, UniProt A1Z1R1, T28A).
T3 sequence (A1Z1R1 20-164 T28A): T1 sequence (A1Z1R1 20-164 E117A) with T9A, A98E
Kind of test: Fluorescence binding assay with 1-NPN, mutant SlitOBP1 Thr9.

Test [4] has as its target T4, SlitOBP1 Trp37 (tryptophan to alanine) (Spodoptera litura, UniProt A1Z1R1, W56A).
T4 sequence (A1Z1R1 20-164 W56A): T1 sequence (A1Z1R1 20-164 E117A) with W37A, A98E
Nature of the test: Fluorescence binding assay with 1-NPN, mutant SlitOBP1 Trp37.

Another test addresses T5, SlitOBP1 (Spodoptera litura, UniProt A1Z1R1).
T5 sequence (A1Z1R1 20-164): T1 sequence (A1Z1R1 20-164 E117A) with A98E
Kind of test: Fluorescence competitive binding assay with 1-NPN, recombinant SlitOBP1. Particulars: for binding to SlitOBP1 in the competitive fluorescence binding assay, in words: wild-type SlitOBP1, displacement of 1-NPN.

For test [5], the target named is T6, SlitOBP1 Ile52 (isoleucine to alanine) (Spodoptera litura, UniProt A1Z1R1, I71A).
T6 sequence (A1Z1R1 20-164 I71A): T1 sequence (A1Z1R1 20-164 E117A) with I52A, A98E
Nature of the test: Fluorescence binding assay with 1-NPN, mutant SlitOBP1 Ile52.

Where [6] appears, read: 2 μM SlitOBP1, 2 μM 1-NPN, ligand 0-20 μM, unit inferred.

Residue numbers refer to the chain shown, from its start. Entries after “also recorded” stand apart in the source; their conditions may differ. Like-named read-outs stand apart in the source and are kept apart here.

What is called Kd is the constant that tells how readily two partners part at equilibrium. As a reminder, the Ki is a dissociation constant, usually derived from enzyme kinetics or from competition with a known ligand. Usually IC50 stands for the concentration that gives 50% inhibition.

Turning to `c1ccc(Nc2cccc3ccccc23)cc1` [1-NPN, N-phenyl-1-naphthylamine, reference compound], the Kd in test [1] came out at 3.67 ± 0.25 µM; in test [2], 6.78 ± 0.25 µM; in test [3] it was 4.21 ± 0.19 µM; in test [4], 4.54 ± 0.28 µM; on SlitOBP1, 3.24 ± 0.2 µM; in test [5], 5.43 ± 0.31 µM.

On to `C[C@]12C=CC(=O)C=C1CC[C@@H]1[C@@H]2[C@@H](O)C[C@@]2(C)[C@H]1CC[C@]2(O)C(=O)CO` [50-24-8, 11β,17α,21-trihydroxypregna-1,4-diene-3,20-dione, reference compound], for which, at SlitOBP1, the Ki turned out to be 3.1 µM and the “binding to SlitOBP1 in the competitive fluorescence binding assay, in words” value (shortened to “binding to SlitOBP1”) is “high affinities; also recorded: could effectively displace 1-NPN”. For the same compound, the IC50 on SlitOBP1 (setting [6]) was found to be 5.02 µM.

For `C[C@]12C=CC(=O)C=C1CC[C@@H]1[C@@H]2C(=O)C[C@@]2(C)[C@H]1CC[C@]2(O)C(=O)CO` [53-03-2, 1,2-Dehydrocortisone, reference compound], on SlitOBP1, the Ki stood at 3.09 µM and the “binding to SlitOBP1” value is “high affinities; also recorded: could effectively displace 1-NPN”. In addition, at SlitOBP1 (setting [6]), the IC50 is 5 µM.

In the case of `CC(=O)[C@H]1CC[C@H]2[C@@H]3CC=C4C[C@@H](O)CC[C@]4(C)[C@H]3CC[C@]12C` [145-13-1, Delta-5-pregnenolone], on SlitOBP1, the Ki amounted to 9.13 µM. The IC50 at SlitOBP1 (setting [6]) stood at 14.8 µM.

With `O=C(O)C(F)(F)C(F)(F)C(F)(F)C(F)(F)C(F)(F)C(F)(F)C(F)(F)C(F)(F)F` [375-95-1, Perfluorononanoic acid], on SlitOBP1, the inhibition constant Ki is 3.76 µM and the “binding to SlitOBP1” value is on record as “high affinities; also recorded: could effectively displace 1-NPN”. At SlitOBP1 (setting [6]), the half-maximal inhibitory concentration (IC50) is 6.08 µM.

For the compound `OCCC(F)(F)C(F)(F)C(F)(F)C(F)(F)C(F)(F)C(F)(F)C(F)(F)C(F)(F)F` [678-39-7, 1H,1H,2H,2H-perfluoro-1-decanol], in test [4] (mutant Trp37), the “binding to the mutant compared with the wild type, in words” value was “better binding activities”. The inhibition constant (Ki) at SlitOBP1 amounted to 3.69 µM. The IC50 at SlitOBP1 (setting [6]) is 5.97 µM.

As for `OCC(F)(F)C(F)(F)C(F)(F)C(F)(F)C(F)(F)C(F)(F)C(F)(F)C(F)(F)CO` [754-96-1, 1H,1H,10H,10H-perfluoro-1,10-decanediol], the Ki at SlitOBP1 is 4.13 µM. Moreover, the IC50 at SlitOBP1 (setting [6]) stood at 6.68 µM.

As for `O=C(O)C(F)(F)C(F)(F)C(F)(F)C(F)(F)C(F)(F)C(F)(F)C(F)(F)C(F)(F)Cl` [865-79-2, 9-Chlorohexadecafluorononanoic acid], at SlitOBP1, the IC50 was 6 µM; the inhibition constant Ki was 3.73 µM; the “binding to SlitOBP1” value is “high affinities; also recorded: could effectively displace 1-NPN”.

Take `CC(=O)[C@@]12O[C@@H]1C[C@H]1[C@@H]3CC=C4C[C@@H](O)CC[C@]4(C)[C@H]3CC[C@@]12C` [974-23-2, 16,17-epoxypregnenolone]: the Ki on SlitOBP1 was 5.12 µM. The concentration for half-maximal inhibition (IC50) on SlitOBP1 (setting [6]) was 8.28 µM.

Take `N#CC(F)(F)C(F)(F)C(F)(F)C(F)(F)C(F)(F)C(F)(F)C(F)(F)C(F)(F)C#N` [2342-09-8, Perfluorosebaconitrile]: on SlitOBP1, the “binding to SlitOBP1” value was “no binding potential”.

For `CC(C)(C)OC(=O)C[C@H](NC(=O)OCc1ccccc1)C(=O)O` [5545-52-8, N-Cbz-L-Aspartic acid 4-tert-butyl ester], at SlitOBP1, the IC50 worked out at 6.7 µM and the Ki stood at 4.14 µM.

Turning to `NCC(=O)NC(Cc1ccc(O)cc1)C(=O)NCC(=O)O` (stereo not drawn) [6099-08-7, H-Gly-Tyr-Gly-OH], the “binding to the mutant compared with the wild type, in words” value in test [1] (mutant Glu98) and in test [3] (mutant Thr9) was “better binding activities” in each case. The Ki on SlitOBP1 amounted to 3.78 µM. Besides, the IC50 at SlitOBP1 (setting [6]) is 6.11 µM.

Take `CC[C@H](C)[C@H](NC(=O)[C@@H](N)CCCCN)C(=O)O` [20556-13-2, H-Lys-Ile-OH]: the Ki on SlitOBP1 came to 4.65 µM. For the same compound, the IC50 on SlitOBP1 (setting [6]) stood at 7.52 µM.

`NC(=O)[C@@H]1CCCN1C(=O)[C@H](Cc1cnc[nH]1)NC(=O)[C@@H]1CCC(=O)N1` [24305-27-9, Pyr-His-Pro-NH2]: the inhibitory constant (Ki) at SlitOBP1 amounted to 4.44 µM. In addition, at SlitOBP1 (setting [6]), the IC50 worked out at 7.18 µM.

For the compound `NCCC(F)(F)C(F)(F)C(F)(F)C(F)(F)C(F)(F)C(F)(F)C(F)(F)C(F)(F)F` [30670-30-5, 1H,1H,2H,2H-perfluorodecylamine], the “binding to SlitOBP1” value at SlitOBP1 was “no binding potential”.

For the compound `N[C@@H](Cc1ccc(O)cc1)C(=O)OCc1ccccc1` [42406-77-9, L-Tyrosine benzyl ester], the Ki at SlitOBP1 stood at 4.47 µM. In addition, at SlitOBP1 (setting [6]), the IC50 was found to be 7.23 µM.

Turning to `OCC(F)(F)C(F)(F)C(F)(F)C(F)(F)C(F)(F)C(F)(F)C(F)(F)CO` [203303-01-9, 1H,1H,9H,9H-perfluoro-1,9-nonanediol], the inhibition constant (Ki) on SlitOBP1 came to 5.84 µM. Moreover, the IC50 on SlitOBP1 (setting [6]) worked out at 9.45 µM.
